Several values for one entry are separate records, joined by “and”; a condition that tells them apart may be missing. Equal entries are not always repeated.
Tests used:
[1] = CCK-8 viability assay in PBCEC; format: cell-based, porcine; conditions: pig, primary porcine brain capillary endothelial cells (PBCEC)
Description: (§1) Primary porcine brain capillary endothelial cells (PBCEC) were kindly provided by the group of Prof. Dr. Langer, Institute of Pharmaceutical Technology, WWU Münster. Cellular viability was tested after treatment for 48 h using the CCK-8 assay, like applied for the cell lines but with minor modifications. Based on earlier protocols for the cultivation of PBCEC, the cryopreserved PBCEC were thawed at 37°C in a water bath, gently resuspended in culture medium (Medium 199 Earle’s with 100 U/mL penicillin, 100 μg/mL streptomycin, 100 μg/mL gentamycin, 4.1 mM L-glutamine and 10% fetal calf serum) and centrifugated at 220 × g at 20°C for 10 min. After removal of the supernatant, fresh complete medium was added and the cell pellet was resuspended twice and diluted to desired cell density. The cells were seeded on rat tail collagen coated 96-well tissue culture plates with 100 μL of the cell suspension per well. PBCEC were allowed to grow for 48 h at 37°C, 5% CO2 under saturated humidified conditions. Complete medium was exchanged for serum free medium (DMEM/Ham’s F-12 1:1 with 100 U/mL penicillin, 100 μg/mL streptomycin, 100 μg/mL gentamycin, 0.7 mM L-glutamine and 550 nM hydrocortisone (Sigma-Aldrich, Steinheim, Germany)). On day 5 in culture (96 h after seeding) half of the medium (50 μL) was removed and exchanged with 50 μL double concentrated ENN solution to reach the desired final concentrations in a concentration range from 0.1 μM to 10 μM. The cells were treated with the test substances in concentrations from 0.1 to 10 μM for 48 h. Due to the sensitivity of the primary cells, after completion of 48 h, the incubation medium was not exchanged but each well was supplemented with 10 μL of the CCK-8 solution and incubated for 70 min at 37°C, 5% CO2 in a saturated humidified atmosphere. Then the absorbance of the generated formazan dye was measured at 457 nm with 650 nm as reference wavelength. After subtracting the reference absorption as well as a blank absorption without cells, the viabilities were normalized to a solvent treated negative control (1% ACN).

PBCEC [2] = assay: CCK-8 viability assay in PBCEC; format: cell-based, porcine; conditions: 48 h; for cytotoxic effects: 1 μM
Description: as §1

[3] = Transfer across PBCEC monolayer on Transwell filters (BBB model); format: in vitro ADME, porcine; conditions: pig; apical to basolateral, 1 μM apical application (passive transport); read-out: Permeability coefficient
Description: (§2) In accordance with the thawing and seeding procedure for PBCEC, described for the viability test, 500 μL PBCEC suspension (2.5 × 10^5 cells/well) in culture medium were seeded on rat tail collagen coated 12-well Transwell® microporous polycarbonate filter inserts (Corning, Wiesbaden, Germany; growth area 1.12 cm^2, pore size 0.4 μm) in the upper (apical) compartment of the filter system. The lower (basolateral) compartment was filled with 1500 μL complete medium. This two-compartment system was used as model system for the BBB with the apical compartment reflecting the “blood”-side and the basolateral compartment serving as the “brain”-side. After 48 h, the complete medium was replaced by serum free medium. Additionally, 550 nM hydrocortisone (Sigma-Aldrich, Steinheim, Germany) was supplemented to urge differentiation of cells. After another 48 h, experiments studying barrier integrity and permeability were performed.
(§3) Before starting each experiment, the TEER values and the electrical capacitance of all cell layers were measured via cellular impedance spectroscopy (cellZscope®, nanoAnalytics, Münster, Germany). […] TEER values relate to the constitution of the tight junctions limiting paracellular transfer of compounds. In addition to the TEER, electrical capacitances (CCl) were monitored for 48 h. Cellular phospholipid bilayers act like an electrical capacitor and also contribute to the cellular impedance. Changes of the CCl value give information about the integrity of the cell monolayer. In this experiment, a parallel set up was applied. For each treatment, one triplicate of filters was monitored via cellular impedance spectroscopy over the course of 48 h using a cellZscope® device–here, the basolateral compartment was prepared with 1650 μL serum free medium and the volume in the apical compartment was filled to 760 μL (ratio 1:2.17). Another triplicate for the same incubation conditions was kept in Transwell® filter cell culture multiple well plates (12 well format) over the course of 48 h. In the multiple well plates the ratio between the apical and the basolateral compartment was 1:3, therefore the starting volume in the apical compartment is 500 μL and 1500 μL in the basolateral compartment. Here, samples for quantitation of transfer of enniatins across the barrier were drawn after 1, 2.5, 6.5, 18, 24, 28, 42 and 48 hours in this given ratio i.e. 30 μL apical and 90 μL basolateral. After 48 h, the final TEER values of the filters from the multiple well plate were measured to ensure the stability of the cell layer throughout the experiment. To double check the integrity of the barrier, lucifer yellow (LY, 50 μM), as a paracellular transfer marker, was applied. The amount of LY found in the basolateral compartment after 1 h was measured at λex = 430 nm and λ em = 540 nm.
(§4) After the completion of the experiment, the polycarbonate filter membranes were extracted. The filters were cut out and extracted with ACN/H2O (8+2, v/v) via ultrasonication for 1 h. The extract was evaporated (vacuum concentrator BA-VC-200 H, Bachofer GmbH + Co KG, Reutlingen, Germany) and reconstituted in 200 μL of ACN/H2O (8+2, v/v). The obtained samples and filter extracts were analyzed and quantitated with high performance liquid chromatography-tandem mass spectrometry (HPLC-MS/MS).
(§5) The quantitation of ENN B and ENN B1 by HPLC-MS/MS was carried out using an 1100 series (Agilent Technologies, Santa Clara, USA) high performance liquid chromatography (HPLC) system and API 3200 (AB SCIEX Germany GmbH, Darmstadt, Germany) mass spectrometer. Both devices were operated with Analyst Version 1.6.2 software (AB SCIEX Germany GmbH, Darmstadt, Germany). A Synergi 4 μm Fusion-RP 80 Å 50 × 2.0 mm (Phenomenex) equipped with a Synergy 4 μm Fusion-RP 4 × 2.0 mm (Phenomenex) precolumn was used and maintained at 40°C. A binary gradient consisting of ACN (A) and water (B) (both containing 0.1% formic acid) was applied. […]

PBCEC monolayer = assay: as above; format: in vitro ADME, porcine; conditions: for active transport: 200 nM equimolar on both sides; for amount of apically applied compound found in basolateral compartment: after 6.5 h; for amount in filter membrane with attached PBCEC relative to applied amount: extraction after 48 h
Description: as §2, §3, §4, §5

PBCEC [4] = assay: Barrier integrity of PBCEC (TEER and capacitance CCl); format: cell-based, porcine; conditions: for barrier impairing effect: 200 nM; for effect on TEER value / effect on monolayer confluency (capacitance CCl): 1 μM, 48 h
Description: as §3

[5] = Pig feeding study, plasma concentration; format: in vivo; conditions: worst case contamination 5.8 mg/kg ENN B, 18.3 mg/kg ENN B1
[6] = design: method as in PMID 23598119; conditions: oral intake 0.05 mg/kg b.w.; cited from earlier work
MRC-5 cells = system: MRC-5 cells; design: method as in PMID 16730043; conditions: MRC-5, 24 h, Alamar Blue; cited from earlier work

| Compound | viability at 48 h, 10 µM ([1]; 10 μM, read-out: relative viability) | cytotoxic effects (PBCEC [2]) | concentration with highly significant cytotoxicity (PBCEC [2]) | Papp A→B at 1 μM [3] | active transport (PBCEC monolayer) | amount transferred to basolateral compartment (PBCEC monolayer; 1 μM (0.5 nmol) apical, 6.5 h to 48 h) | amount of apically applied compound found in basolateral compartment (PBCEC monolayer; 1 μM (0.5 nmol) apical) | amount in filter membrane with attached PBCEC relative to applied amount (PBCEC monolayer) | barrier impairing effect (PBCEC [4]) | effect on TEER value (PBCEC [4]) | effect on monolayer confluency (capacitance CCl) (PBCEC [4]) | theoretical plasma levels [5] | concentration in pig plasma [6] | IC50 (MRC-5 cells) | viability at 48 h ([1]; concentrations above 5 μM, read-out: cellular viability, minimum) | plateau of amount in basolateral compartment (PBCEC monolayer; 1 μM (0.5 nmol) apical) |
| --- | --- | --- | --- | --- | --- | --- | --- | --- | --- | --- | --- | --- | --- | --- | --- | --- |
| CC[C@H](C)[C@H]1C(=O)O[C@H](C(C)C)C(=O)N(C)[C@@H](C(C)C)C(=O)O[C@H](C(C)C)C(=O)N(C)[C@@H](C(C)C)C(=O)O[C@H](C(C)C)C(=O)N1C [ENN B1, enniatin B1] | 64% | did not show any cytotoxic effects | ≥ 2.5 µM | 146 nm/s | minor enrichment in the apical compartment | up to 55% | 44% | 2.7% | did not have any barrier impairing effect | does not lead to a breakdown of the TEER value | does not impair PBCEC confluency | 0.641 μg/mL and 0.980 μM | 0.035 μg/mL and 0.054 μM | 4.7 µM |  |  |
| CC(C)[C@H]1C(=O)O[C@H](C(C)C)C(=O)N(C)[C@@H](C(C)C)C(=O)O[C@H](C(C)C)C(=O)N(C)[C@@H](C(C)C)C(=O)O[C@H](C(C)C)C(=O)N1C [ENN B, enniatin B] |  | did not show any cytotoxic effects | above 5 μM | 149 nm/s | minor enrichment in the apical compartment |  | 53% | below 1% | did not have any barrier impairing effect | does not lead to a breakdown of the TEER value | does not impair PBCEC confluency | 0.423 μg/mL and 0.662 μM | 0.073 μg/mL and 0.114 μM | 9.8 µM | 70% | 70 ± 4% |
